Key:
HT-1080.hFAP cells = test: In vitro cellular uptake (cell surface and internalized fractions) in HT-1080.hFAP cells; type: cell-based, human
Description: (§1) The cellular uptake was studied in vitro using intact cells seeded in 6-well plates overnight. On the day of the experiment, the cells were washed and incubated with each of the exemplified [^61Cu]Cu-radiotracer at different time points, either alone or in the presence of a blocking agent to distinguish between specific and non-specific uptake. At each investigated time point, the medium containing the unbound (free) radiotracer was removed, followed by two washing steps with ice-cold phosphate-buffered saline. The cells were then treated 2×5 min with ice-cold glycine solution (0.05 M, pH 2.8) to detach the cell surface-bound radiotracer (acid released). Afterwards, the cells containing the internalized radiotracer were detached with 1 M NaOH at 37° C. and collected for measurement. The amount of specific cell surface-bound and internalized radiotracer is expressed as percentage of the total applied activity, after subtracting the non-specific values.
as §1, with “^61Cu-labeled conjugate” for “of the exemplified [^61Cu]Cu-radiotracer”
The cells were then preconditioned in 360 μL of assay medium (MEM medium without supplements) at 37° C. for 60 min. 40 μL of a 2 nM solution of ^61Cu-labeled radioligand was added and the cells were incubated at 37° C. The cellular uptake was interrupted at different time points (15 min, 1 hour and 4 hours), by washing twice with ice-cold PBS. Cell surface-bound radioligand was obtained by washing cells twice with ice-cold glycine buffer (pH 2.8), followed by a collection of the internalized fraction with 1 M NaOH. The activity in each fraction was measured in a γ-counter (Cobra II).

[1] = system: HT-1080.hFAP and HT-1080.wt xenografts; test: Quantitative biodistribution in HT-1080.hFAP and HT-1080.wt xenografted mice; type: in vivo; conditions: for Biodistribution HT-1080.wt: FAP-negative tumor; for Biodistribution HT-1080.hFAP: FAP-positive tumor
Description: The tumors were allowed to grow to an average volume of 100-200 mm3.
Biodistribution Studies: The xenografted mice were randomized (n=5 per group) and injected intravenously via the tail vein with the ^61Cu-labeled radioligands (100 μL, […], 0.8-1MBq). Mice were euthanized 1h and 4h pi. by CO2 asphyxiation. Organs of interest and blood were collected, rinsed of excess blood, blotted dry, weighed, and counted in a […]. The samples were counted against a suitably diluted aliquot of the injected solution as the standard and the results are expressed as the percentage of the injected activity per gram of tissue (0% I.A./g)+SD.

hFAP = hFAP (Homo sapiens (Human), UniProt Q12884); test: Saturation binding on isolated HEK-293.hFAP cell membranes; design: Bmax: unit not given here; conditions: 37° C.
Chain of hFAP (Q12884 whole entry): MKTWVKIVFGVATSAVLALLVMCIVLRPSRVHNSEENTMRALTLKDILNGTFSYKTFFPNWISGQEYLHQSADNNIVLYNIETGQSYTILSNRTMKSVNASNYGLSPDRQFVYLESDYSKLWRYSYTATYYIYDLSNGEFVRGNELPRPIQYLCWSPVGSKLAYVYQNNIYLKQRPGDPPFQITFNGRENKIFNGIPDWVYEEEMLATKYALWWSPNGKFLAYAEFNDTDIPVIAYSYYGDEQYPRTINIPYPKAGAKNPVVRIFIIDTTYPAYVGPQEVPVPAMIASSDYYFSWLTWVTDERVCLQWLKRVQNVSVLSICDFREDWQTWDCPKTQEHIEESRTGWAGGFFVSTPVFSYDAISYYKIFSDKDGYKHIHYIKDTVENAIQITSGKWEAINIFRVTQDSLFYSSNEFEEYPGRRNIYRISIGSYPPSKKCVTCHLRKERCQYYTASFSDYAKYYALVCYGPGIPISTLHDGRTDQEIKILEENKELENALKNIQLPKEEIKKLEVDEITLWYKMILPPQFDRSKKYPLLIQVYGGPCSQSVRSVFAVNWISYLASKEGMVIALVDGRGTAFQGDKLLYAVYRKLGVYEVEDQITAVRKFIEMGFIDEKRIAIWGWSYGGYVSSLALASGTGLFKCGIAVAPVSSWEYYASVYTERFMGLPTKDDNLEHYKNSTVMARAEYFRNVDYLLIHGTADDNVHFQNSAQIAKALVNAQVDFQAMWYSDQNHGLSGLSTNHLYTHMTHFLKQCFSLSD
Description: The cells were homogenized using Ultra-Turrax, and the homogenized suspension was centrifuged at 500×g for 10 min at 4° C. The supernatant was collected in centrifuge tubes (Beckman Coulter Inc., Brea, CA, USA). This procedure was then repeated 5 times. The collected supernatant was centrifuged in an ultra-centrifuge (Beckman) at 4° C. for 55 min at 49,000×g. Then, the pellet was re-suspended in 10 mM ice-cold HEPES buffer (pH 7.5), aliquoted, and stored at −80° C. The protein concentration of those membrane suspensions was determined by the Bradford method, BSA as the standard.
Each assay tube contained 170 μL of binding buffer (20 mM HEPES, pH 7.4, containing 4 mM μgCl2, 0.2% BSA, 20 μg/L bacitracin, 20 μg/L PMSF and 200,000 KIU/L aprotinin). The incubation was initiated by adding 30 μL of radioligand solution at 10 times the final concentration and 100 μL of cell membrane suspension to yield 10 μg of protein per well. For the determination of the non-specific binding, 140 μL of the above binding buffer was added along with 30 μL of FAPI-46 to obtain (0.1 mM). Bound fractions were plotted versus the corresponding radioligand concentration at equilibrium. The dissociation constant (KD) and maximal binding capacity (Bmax) values were calculated using GraphPad Software Inc., Prism 7, San Diego, CA, USA (Table 33 and FIG. 21).

[2] = 1 h p.i., HT-1080.hFAP and HT-1080.wt xenografts
[3] = 4 h p.i., HT-1080.hFAP and HT-1080.wt xenografts

For `N#C[C@@H]1CC(F)(F)CN1C(=O)CNC(=O)c1ccnc2ccc(NC(=O)CCC(=O)N3CCN(C(=O)CC[C@H](C(=O)O)N4CCN5CCN(CC4)CC(=O)[O][61Cu][O]C(=O)C5)CC3)cc12` [[^61Cu]Cu-NODAGA-F3], the Cell surface fraction (HT-1080.hFAP cells; 15 min, HT-1080.hFAP cells, specific uptake (minus HT-1080.wt)) was 0.9 ± 0.3 % of the applied activity, the Cell surface fraction (HT-1080.hFAP cells; Time Point 15 min, 0.2 nM) was 0.9 ± 0.3 percentage of the total applied activity and the “Biodistribution Heart” value ([1]; 1 hour p.i.) was 0.7 ± 0.1 % I.A./g. The “Biodistribution Intestine” value ([1]; 1 hour p.i.) was 0.8 ± 0.2 % I.A./g, the “Biodistribution Liver” value ([1]; 1 hour p.i.) was 0.9 ± 0.1 % I.A./g and the “Biodistribution Spleen” value ([1]; 1 hour p.i.) was 0.5 ± 0.1 % I.A./g. The “Biodistribution Stomach” value ([1]; 1 hour p.i.) was 0.8 ± 0.1 % I.A./g, the “Biodistribution Adrenal” value [1, 2] was 2.1 ± 0.6 % IA/g and the “Biodistribution Blood” value [1, 2] was 1.7 ± 0.1 % IA/g. For the same compound, the “Biodistribution Femur” value [1, 2] was 5.4 ± 1.2 % IA/g, the “Biodistribution HT1080.hFAP (FAP-positive tumor)” value [1, 2] was 7.9 ± 0.9 % IA/g and the “Biodistribution HT1080.wt (FAP-negative tumor)” value [1, 2] was 4.0 ± 2.2 % IA/g. For the same compound, the “Biodistribution Heart” value [1, 2] was 0.7 ± 0.1 % IA/g, the “Biodistribution Intestine” value [1, 2] was 0.8 ± 0.2 % IA/g and the “Biodistribution Kidney” value [1, 2] was 1.6 ± 0.3 % IA/g. The “Biodistribution Liver” value [1, 2] was 0.9 ± 0.1 % IA/g, the “Biodistribution Lung” value [1, 2] was 1.2 ± 0.1 % IA/g and the “Biodistribution Muscle” value [1, 2] was 2.1 ± 0.8 % IA/g. For the same compound, the “Biodistribution Pancreas” value [1, 2] was 1.6 ± 0.2 % IA/g, the “Biodistribution Spleen” value [1, 2] was 0.5 ± 0.1 % IA/g and the “Biodistribution Stomach” value [1, 2] was 0.8 ± 0.1 % IA/g. For the same compound, the “Biodistribution Blood” value ([1]; 4 hours p.i.) was 0.9 ± 0.0 % I.A./g, the “Biodistribution Heart” value ([1]; 4 hours p.i.) was 0.5 ± 0.0 % I.A./g and the “Biodistribution Intestine” value ([1]; 4 hours p.i.) was 0.4 ± 0.1 % I.A./g. For the same compound, the “Biodistribution Kidneys” value ([1]; 4 hours p.i.) was 1.0 ± 0.2 % I.A./g, the “Biodistribution Liver” value ([1]; 4 hours p.i.) was 0.7 ± 0.1 % I.A./g and the “Biodistribution Lung” value ([1]; 4 hours p.i.) was 0.7 ± 0.1 % I.A./g. For the same compound, the “Biodistribution Pancreas” value ([1]; 4 hours p.i.) was 0.9 ± 0.0 % I.A./g, the “Biodistribution Spleen” value ([1]; 4 hours p.i.) was 0.3 ± 0.0 % I.A./g and the “Biodistribution Stomach” value ([1]; 4 hours p.i.) was 0.5 ± 0.0 % I.A./g. For the same compound, the “Biodistribution Adrenal” value [1, 3] was 1.4 ± 0.3 % IA/g, the “Biodistribution Blood” value [1, 3] was 0.9 ± 0.0 % IA/g and the “Biodistribution Femur” value [1, 3] was 3.7 ± 0.3 % IA/g. The “Biodistribution HT1080.hFAP (FAP-positive tumor)” value [1, 3] was 6.4 ± 2.0 % IA/g, the “Biodistribution HT1080.wt (FAP-negative tumor)” value [1, 3] was 1.8 ± 0.3 % IA/g and the “Biodistribution Heart” value [1, 3] was 0.5 ± 0.0 % IA/g. The “Biodistribution Intestine” value [1, 3] was 0.4 ± 0.1 % IA/g, the “Biodistribution Kidney” value [1, 3] was 1.0 ± 0.2 % IA/g and the “Biodistribution Liver” value [1, 3] was 0.7 ± 0.1 % IA/g. The “Biodistribution Lung” value [1, 3] was 0.7 ± 0.1 % IA/g, the “Biodistribution Muscle” value [1, 3] was 1.1 ± 0.1 % IA/g and the “Biodistribution Pancreas” value [1, 3] was 0.9 ± 0.0 % IA/g. The “Biodistribution Spleen” value [1, 3] was 0.3 ± 0.0 % IA/g, the “Biodistribution Stomach” value [1, 3] was 0.5 ± 0.0 % IA/g and the “Biodistribution HT-1080.wt” value ([1]; 1 hour p.i.) was 4.0 ± 2.2 % I.A./g. The “Biodistribution HT-1080.wt” value ([1]; 4 hours p.i.) was 1.8 ± 0.3 % I.A./g, the “Biodistribution HT-1080.hFAP” value ([1]; 1 hour p.i.) was 7.9 ± 0.9 % I.A./g and the “Biodistribution HT-1080.hFAP” value ([1]; 4 hours p.i.) was 6.4 ± 2.0 % I.A./g. The “accumulation in tumor and target-positive tissues” value ([1]; HT-1080.hFAP and HT-1080.wt xenografts) was “high accumulation in FAP-positive (HT-1080.hFAP) tumor and murine-FAP-positive tissues” and the Bmax (hFAP) was 7.3-8.1.
